Assay results taken from the NIST ThermoML archive (doi:10.1016/j.fluid.2010.08.022).

Details: 101.33 kPa, Liquid crystal of unknown type; for speed of sound: Sing-around technique in a fixed-path interferometer; for mass density: Vibrating tube method

CCCCCCCC/C=C\CCCCCCCC(=O)[O-].OCC[NH2+]CCO [bis(2-hydroxyethyl)ammonium oleate]
Details | mass density [kg/m3] | speed of sound [m/s]
278.14 K | 978.16 | 1601.5
278.39 K | 977.996 | 1600.3
278.64 K | 977.834 | 1599.2
278.89 K | 977.67 | 1598.1
279.14 K | 977.506 | 1596.9
279.39 K | 977.342 | 1595.7
279.64 K | 977.177 | 1594.6
279.89 K | 977.017 | 1593.5
280.15 K | 976.852 | 1592.3
280.4 K | 976.689 | 1591.2
280.65 K | 976.525 | 1590.1
280.89 K | 976.361 | 1589
281.15 K | 976.197 | 1587.9
281.4 K | 976.035 | 1586.8
281.65 K | 975.87 | 1585.7
281.9 K | 975.706 | 1584.6
282.15 K | 975.544 | 1583.5
282.4 K | 975.38 | 1582.5
282.65 K | 975.217 | 1581.4
282.9 K | 975.053 | 1580.3
283.15 K | 974.89 | 1579.3
283.4 K | 974.726 | 1578.2
283.65 K | 974.562 | 1577.2
283.9 K | 974.401 | 1576.2
284.15 K | 974.236 | 1575.1
284.4 K | 974.073 | 1574
284.65 K | 973.91 | 1573
284.9 K | 973.745 | 1572
285.15 K | 973.584 | 1571
285.4 K | 973.419 | 1569.9
285.65 K | 973.258 | 1568.9
285.9 K | 973.092 | 1567.9
286.15 K | 972.93 | 1566.9
286.4 K | 972.766 | 1565.8
286.65 K | 972.604 | 1564.8
286.9 K | 972.442 | 1563.8
287.15 K | 972.275 | 1562.8
287.4 K | 972.113 | 1561.8
287.65 K | 971.951 | 1560.8
287.9 K | 971.788 | 1559.8
288.15 K | 971.625 | 1558.8
288.4 K | 971.46 | 1557.8
288.65 K | 971.299 | 1556.7
288.9 K | 971.135 | 1555.8
289.15 K | 970.972 | 1554.8
289.4 K | 970.811 | 1553.8
289.65 K | 970.645 | 1552.8
289.9 K | 970.483 | 1551.8
290.15 K | 970.32 | 1550.8
290.4 K | 970.158 | 1549.8
290.65 K | 969.995 | 1548.9
290.9 K | 969.831 | 1547.9
291.15 K | 969.668 | 1546.9
291.4 K | 969.506 | 1545.9
291.65 K | 969.343 | 1544.9
291.9 K | 969.18 | 1543.8
292.15 K | 969.016 | 1542.7
292.4 K | 968.854 | 1541.7
292.65 K | 968.691 | 1540.8
292.9 K | 968.527 | 1539.8
293.15 K | 968.365 | 1538.9
293.4 K | 968.202 | 1538
293.65 K | 968.039 | 1537.1
293.9 K | 967.876 | 1536.2
294.15 K | 967.713 | 1535.3
294.4 K | 967.548 | 1534.4
294.65 K | 967.388 | 1533.5
294.91 K | 967.225 | 1532.7
295.15 K | 967.061 | 1531.8
295.4 K | 966.898 | 1530.9
295.66 K | 966.735 | 1530
295.91 K | 966.572 | 1529.1
296.16 K | 966.408 | 1528.3
296.4 K | 966.246 | 1527.4
296.66 K | 966.084 | 1526.5
296.91 K | 965.921 | 1525.6
297.16 K | 965.758 | 1524.8
297.41 K | 965.595 | 1523.9
297.66 K | 965.433 | 1523
297.91 K | 965.27 | 1522.2
298.16 K | 965.108 | 1521.3
298.41 K | 964.945 | 1520.5
298.66 K | 964.781 | 1519.6
298.9 K | 964.619 | 1518.8
299.15 K | 964.457 | 1517.9
299.4 K | 964.294 | 1517.1
299.66 K | 964.132 | –
299.91 K | 963.968 | 1515.4
300.16 K | 963.805 | 1514.5
300.4 K | 963.642 | 1513.7
300.66 K | 963.481 | 1512.8
300.9 K | 963.318 | 1512
301.16 K | 963.154 | 1511.2
301.41 K | 962.991 | 1510.3
301.66 K | 962.83 | 1509.5
301.91 K | 962.666 | 1508.7
302.16 K | 962.503 | 1507.8
302.41 K | 962.341 | 1507
302.66 K | 962.178 | 1506.1
302.91 K | 962.013 | 1505.3
303.16 K | 961.853 | 1504.5
303.41 K | 961.689 | 1503.6
303.66 K | 961.527 | 1502.8
303.91 K | 961.364 | 1502
304.16 K | 961.2 | 1501.2
304.41 K | 961.038 | 1500.3
304.66 K | 960.875 | 1499.5
304.91 K | 960.712 | 1498.7
305.16 K | 960.55 | 1497.9
305.41 K | 960.387 | 1497
305.66 K | 960.223 | 1496.2
305.91 K | 960.061 | 1495.4
306.16 K | 959.898 | 1494.6
306.4 K | 959.736 | 1493.8
306.65 K | 959.573 | 1493
306.91 K | 959.409 | 1492.1
307.16 K | 959.246 | 1491.3
307.41 K | 959.083 | 1490.5
307.66 K | 958.92 | 1489.7
307.91 K | 958.759 | 1488.9
308.16 K | 958.595 | 1488.1
308.4 K | 958.43 | 1487.3
308.65 K | 958.268 | 1486.5
308.91 K | 958.105 | 1485.7
309.16 K | 957.942 | 1484.9
309.4 K | 957.779 | 1484.1
309.66 K | 957.617 | 1483.3
309.91 K | 957.453 | 1482.5
310.16 K | 957.289 | 1481.7
310.41 K | 957.128 | 1480.9
310.66 K | 956.963 | 1480.1
